In patent publication US7390642B2, “Salutaridinol 7-O-acetyltransferase and derivatives thereof” (priority 2001, dated 2008):
Like-named read-outs stand apart in the source and are kept apart here.

Experiments:
[1] = biological target: T1, salutaridinol 7-O-acetyltransferase (Papaver somniferum, UniProt Q94FT4)
[2] = biological target: T1, salutaridinol 7-O-acetyltransferase; assay: Inhibition of enzyme activity by covalent modification with diethylpyrocarbonate; type: biochemical, P. somniferum; set-up: The full-length cDNA generated by RT-PCR was ligated into pFastBac HTa; His tag (N); made in house; host or cells: Spodoptera frugiperda Sf9 cells (baculovirus, pFastBac HTa); purified from culture medium
From the text: Sequence Analysis of pSalAT: Translation of the complete nucleotide sequence of salAT yielded a polypeptide of 474 amino acids containing no apparent signal peptide. This is consistent with the cytosolic localization of the enzyme activity (6). The enzyme activity is also operationally found associated with the cytosolic fraction of exuded latex. The salAT amino acid sequence contains residues conserved in other plant acetyltransferases as indicated by the black boxes in FIG. 2 (SEQ. IDs No.7 to 12). The longest contiguous region of conserved amino acids are the five residues DFGWG near the carboxy terminus that were used for primer design and are indicated by an arrow. Conserved histidine and aspartate residues (HXXXD; denoted by # in FIG. 2) thought to be involved in catalysis as characterized by x-ray crystallography for the bacterial enzymes chloramphenicol acetyltransferase and dihydrolipoamide acetyltransferase are also present in salutaridinol 7-O-acetyltransferase (23,24).

[3] = tested on: CC(=O)SCCNC(=O)CCNC(=O)[C@H](O)C(C)(C)COP(=O)(O)OP(=O)(O)OC[C@H]1O[C@@H](n2cnc3c(N)ncnc32)[C@H](O)[C@@H]1OP(=O)(O)O; assay: purified protein, by the assay type
[4] = tested on: COC1=C[C@]23CCN(C)[C@H](Cc4ccc(OC)c(O)c42)C3=C[C@@H]1O; assay: purified protein, by the assay type; settings: other: fixed concentration of acetyl CoA of 30 mm; recombinant enzyme
[5] = standard assay conditions, acetylation of salutaridinol

In the case of `COC1=C[C@]23CCN(C)[C@H](Cc4ccc(OC)c(O)c42)C3=C[C@@H]1O` [7(R)-salutaridinol], the “acetylation at C-7 by the recombinant enzyme (substrate acceptance)” value (“acetylation” below) ([1]; recombinant enzyme, acetyl CoA) is reported as “not”.

With `CCOC(=O)OC(=O)OCC` [DEPC, diethylpyrocarbonate] the “effect of carbethoxylation of histidine residues on enzyme activity” value [2] was “loss of enzyme activity”, the inhibition at 3000 µM ([2]; 3 mM DEPC) was 50% and the inhibition at 5000 µM ([2]; 5 mM DEPC) was 92%. For the same molecule, the inactivation of enzyme ([2]; 5 mM DEPC after preincubation of the enzyme with 30 mM acetyl CoA) was 46%.

`[3H]C1(O)C=C2C3Cc4ccc(OC)c(O)c4C2(C=C1OC)CCN3C` (centres unmarked) [[7-^3H]salutaridinol] was tested, and the “conversion into a product that co-migrated during TLC with authentic thebaine standard” value ([1]; radioassay of pure, recombinant enzyme) was 100%.

`CC[C@]12C=CCN3CC[C@@]4(c5ccc(OC)cc5N(C)[C@H]4[C@@](O)(C(=O)OC)[C@@H]1O)[C@@H]32` [deacetylvindoline] was tested, and the “acetylation” value ([1]; recombinant enzyme, acetyl CoA) was “not”.

`CN1CC[C@]23c4c5ccc(O)c4O[C@H]2[C@@H](O)C=C[C@H]3[C@H]1C5` [morphine] was tested, and the “acetylation” value [1] was “not”.

`COC1=C[C@]23CCN(C)[C@H](Cc4cc5c(cc42)OCO5)C3=C[C@@H]1O` [nudaurine] was tested, and the “Vmax (nudaurine)” value ([1]; nudaurine as substrate) was 19 pmol/s, the Km ([1]; read-out: apparent Km nudaurine, at 30 mM acetyl CoA) was 23 µM and the “acetylation” value ([1]; recombinant enzyme, acetyl CoA) was “acetylated”.

For `COC1=C[C@]23CCN(C)[C@H](Cc4ccc(OC)c(O)c42)C3=CC1=O` [salutaridine], the “acetylation” value ([1]; recombinant enzyme, acetyl CoA) was “not”.

In the case of `COC1=C[C@]23CCN(C)[C@H](Cc4ccc(OC)c(O)c42)C3=C[C@@H]1O` [salutaridinol, 7(S)-salutaridinol], the “ratio kcat/Km (salutaridinol):kcat/Km(nudaurine)” value ([1]; preference of salutaridinol over nudaurine, factor) is reported as 3.3 and the “acetylation” value ([1]; recombinant enzyme, acetyl CoA, listed as 7(S)-salutaridinol) is reported as “acetylated”.

“salutaridinol 7-O-acetyltransferase (Papaver somniferum)” gave a Km ([3]; other: at 10 mM nudaurine) of 106 µM, a Km ([3]; other: fixed concentration of salutaridinol of 10 mM, recombinant enzyme) of 54 µM and a Km [4] of 9 µM. It also gave a Vmax [4] of 25 pmol/s.

B1: recombinant enzyme: P. somniferum salutaridinol 7-O-acetyltransferase, SEQ. ID No. 14, 474 amino acids (protein, listed as Papaver somniferum)
chain: MATMYSAAVEVISKETIKPTTPTPSQLKNFNLSLLDQCFPLYYYVPIILFYPATAANSTGSSNHHDDLDLLKSSLSKTLVHFYPMAGRMIDNILVDCHDQGINFYKVKIRGKMCEFMSQPDVPLSQLLPSEVVSASVPKEALVIVQVNMFDCGGTAICSSVSHKIADAATMSTFIRSWASTTKTSRSGGSTAAVTDQKLIPSFDSASLFPPSERLTSPSGMSEIPFSSTPEDTEDDKTVSKRFVFDFAKITSVREKLQVLMHDNYKSRRQTRVEVVTSLIWKSVMKSTPAGFLPVVHHAVNLRKKMDPPLQDVSFGNLSVTVSAFLPATTTTTTNAVNKTINSTSSESQVVLHELHDFIAQMRSEIDKVKGDKGSLEKVIQNFASGHDASIKKINDVEVINFWISSWCRMGLYEIDFGWGKPIWVTVDPNIKPNKNCFFMNDTKCGEGIEVWASFLEDDMAKFELHLSEILELI
For B1, the pH optimal range [1, 5] was 7-9 and the temperature optimum [1, 5] was 47 °C.
